According to US9822126B1, “Substituted 1,2,3-triazol-1-yl-methyl-2,3-dihydro-2-methyl-6-nitroimidazo[2,1-b]oxazoles as anti-mycobacterial agents and a process for the preparation thereof” (priority 2014, dated 2017):
In brackets after ≈: the same amount, converted by molar mass. Read-outs that look alike come from different tables or passages of the source.

Columns and labels:
Test in all cases: microbe, parasite or virus in culture
Type in all cases: cell-based
[1] = tested on: M. tuberculosis MDR (resistant to isoniazid and rifampicin); conditions: Mycobacterium tuberculosis
[2] = tested on: Rif^R: rifampicin resistant tuberculosis; conditions: Mycobacterium tuberculosis, read-out: MIC (Rif^R)
[3] = tested on: M. tuberculosis XDR (resistant to isoniazid, rifampicin, amikacin and moxifloxacin); conditions: Mycobacterium tuberculosis, 504 h, read-out: MIC XDR
[4] = read-out: MIC against multi and extensive-drug resistant strains

| SMILES | MIC ([1]; 504 h, read-out: MIC MDR) [µg/mL] | MIC [2] [µg/mL] | MIC [3] [µg/mL] | MIC [1, 4] [µg/mL] | MIC ([1]; read-out: MIC value) [µg/mL] |
| --- | --- | --- | --- | --- | --- |
| C[C@]1(Cn2cc(COc3cccc(F)c3)nn2)Cn2cc([N+](=O)[O-])nc2O1 [I16, (R)-2-((4-((3-Fluorophenoxy)methyl)-1H-1,2,3-triazol-1-yl)methyl)-2-methyl-6-nitro-2,3-dihydroimidazo[2,1-b]oxazole] | 2 (≈ 5.34 µM) | 2 (≈ 5.34 µM) | 2 (≈ 5.34 µM) |  |  |
| C[C@]1(Cn2cc(COc3ccccc3F)nn2)Cn2cc([N+](=O)[O-])nc2O1 [I17, (R)-2-((4-((2-Fluorophenoxy)methyl)-1H-1,2,3-triazol-1-yl)methyl)-2-methyl-6-nitro-2,3-dihydroimidazo[2,1-b]oxazole] | 0.5 (≈ 1.34 µM) | 1 (≈ 2.67 µM) | 1 (≈ 2.67 µM) | 0.5 (≈ 1.34 µM) | < 1 |
| Cc1ccc(SCc2cn(C[C@@]3(C)Cn4cc([N+](=O)[O-])nc4O3)nn2)cc1 [I20, (R)-2-Methyl-6-nitro-2-((4-((p-tolylthio)methyl)-1H-1,2,3-triazol-1-yl)methyl)-2,3-dihydroimidazo[2,1-b]oxazole] | 0.5 (≈ 1.29 µM) | 0.25 (≈ 0.647 µM) | 2 (≈ 5.18 µM) |  | < 1 |
| C[C@]1(Cn2cc(-c3ccc(C(F)(F)F)cc3)nn2)Cn2cc([N+](=O)[O-])nc2O1 [I2, (R)-2-Methyl-6-nitro-2-((4-(4-(trifluoromethyl)phenyl)-1H-1,2,3-triazol-1-yl)methyl)-2,3-dihydroimidazo[2,1-b]oxazole] | 2 (≈ 5.07 µM) | 4 (≈ 10.1 µM) | 2 (≈ 5.07 µM) |  |  |
| C[C@]1(Cn2cc(-c3ccc(Oc4ccccc4)cc3)nn2)Cn2cc([N+](=O)[O-])nc2O1 [I6, (R)-2-Methyl-6-nitro-2-((4-(4-phenoxyphenyl)-1H-1,2,3-triazol-1-yl)methyl)-2,3-dihydroimidazo[2,1-b]oxazole] | 1 (≈ 2.39 µM) | 1 (≈ 2.39 µM) | 1 (≈ 2.39 µM) |  |  |
| CCc1ccc(OCc2cn(C[C@@]3(C)Cn4cc([N+](=O)[O-])nc4O3)nn2)cc1 [I15, (R)-2-((4-((4-Ethylphenoxy)methyl)-1H-1,2,3-triazol-1-yl)methyl)-2-methyl-6-nitro-2,3-dihydroimidazo[2,1-b]oxazole] | 2 (≈ 5.2 µM) | 4 (≈ 10.4 µM) | 4 (≈ 10.4 µM) |  |  |
| CCCCCc1cn(C[C@@]2(C)Cn3cc([N+](=O)[O-])nc3O2)nn1 [I7, (R)-2-[(4-Pentyl-1H-1,2,3-triazol-1-yl)methyl]-2,3-dihydro-2-methyl-6-nitroimidazo[2,1-b]oxazole] | 2 (≈ 6.24 µM) | 8 (≈ 25 µM) | 8 (≈ 25 µM) |  |  |
| Cc1ccc(OCCc2cn(C[C@@]3(C)Cn4cc([N+](=O)[O-])nc4O3)nn2)cc1 [I21, (R)-2-Methyl-6-nitro-2-((4-(2-(p-tolyloxy)ethyl)-1H-1,2,3-triazol-1-yl)methyl)-2,3-dihydroimidazo[2,1-b]oxazole] | 0.25 (≈ 0.65 µM) | 1 (≈ 2.6 µM) | 0.25 (≈ 0.65 µM) | 0.25 (≈ 0.65 µM) | < 1 |
| C[C@]1(Cn2cc(COc3ccc(C(F)(F)F)cc3)nn2)Cn2cc([N+](=O)[O-])nc2O1 [I9, (R)-2-Methyl-6-nitro-2-((4-((4-(trifluoromethyl)phenoxy)methyl)-1H-1,2,3-triazol-1-yl)methyl)-2,3-dihydroimidazo[2,1-b]oxazole] | 4 (≈ 9.43 µM) | 4 (≈ 9.43 µM) | 4 (≈ 9.43 µM) |  |  |
| C[C@]1(Cn2cc(COc3ccc(Br)cc3)nn2)Cn2cc([N+](=O)[O-])nc2O1 [I11, (R)-2-((4-((4-Bromophenoxy)methyl)-1H-1,2,3-triazol-1-yl)methyl)-2-methyl-6-nitro-2,3-dihydroimidazo[2,1-b]oxazole] | 0.12 (≈ 0.276 µM) | 0.12 (≈ 0.276 µM) | 0.25 (≈ 0.574 µM) | 0.12 (≈ 0.276 µM) | < 1 |
| Cc1cc(-c2cn(C[C@@]3(C)Cn4cc([N+](=O)[O-])nc4O3)nn2)ccc1F [I4, (R)-2-((4-(4-Fluoro-3-methylphenyl)-1H-1,2,3-triazol-1-yl)methyl)-2-methyl-6-nitro-2,3-dihydroimidazo[2,1-b]oxazole] | 4 (≈ 11.2 µM) | 1 (≈ 2.79 µM) | 2 (≈ 5.58 µM) |  |  |
| Cc1ccc(OCc2cn(C[C@@]3(C)Cn4cc([N+](=O)[O-])nc4O3)nn2)cc1 [I12, (R)-2-Methyl-6-nitro-2-((4-((p-tolyloxy)methyl)-1H-1,2,3-triazol-1-yl)methyl)-2,3-dihydroimidazo[2,1-b]oxazole] | 2 (≈ 5.4 µM) | 8 (≈ 21.6 µM) | 8 (≈ 21.6 µM) |  |  |
| C[C@]1(Cn2cc(COc3cccc(Cl)c3)nn2)Cn2cc([N+](=O)[O-])nc2O1 [I10, (R)-2-((4-((3-Chlorophenoxy)methyl)-1H-1,2,3-triazol-1-yl)methyl)-2-methyl-6-nitro-2,3-dihydroimidazo[2,1-b]oxazole] | 2 (≈ 5.12 µM) | 2 (≈ 5.12 µM) | 4 (≈ 10.2 µM) |  |  |
| C[C@]1(Cn2cc(-c3ccc(F)cc3F)nn2)Cn2cc([N+](=O)[O-])nc2O1 [I5, (R)-2-((4-(2,4-Difluorophenyl)-1H-1,2,3-triazol-1-yl)methyl)-2-methyl-6-nitro-2,3-dihydroimidazo[2,1-b]oxazole] | 1 (≈ 2.76 µM) | 4 (≈ 11 µM) | 4 (≈ 11 µM) |  |  |
| C[C@]1(Cn2cc(COc3ccc(OC(F)(F)F)cc3)nn2)Cn2cc([N+](=O)[O-])nc2O1 [I8, (R)-2-Methyl-6-nitro-2-((4-((4-(trifluoromethoxy)phenoxy)methyl)-1H-1,2,3-triazol-1-yl)methyl)-2,3-dihydroimidazo[2,1-b]oxazole] | 2 (≈ 4.54 µM) | 2 (≈ 4.54 µM) | 2 (≈ 4.54 µM) |  |  |
| C[C@]1(Cn2cc(COc3ccccn3)nn2)Cn2cc([N+](=O)[O-])nc2O1 [I19, (R)-2-Methyl-6-nitro-2-((4-((pyridin-2-yloxy)methyl)-1H-1,2,3-triazol-1-yl)methyl)-2,3-dihydroimidazo[2,1-b]oxazole] | 0.25 (≈ 0.7 µM) | 0.5 (≈ 1.4 µM) | 0.5 (≈ 1.4 µM) |  | < 1 |
| C[C@]1(Cn2cc(CN3CCOCC3)nn2)Cn2cc([N+](=O)[O-])nc2O1 [I22, (R)-2-Methyl-2-((4-(morpholinomethyl)-1H-1,2,3-triazol-1-yl)methyl)-6-nitro-2,3-dihydroimidazo[2,1-b]oxazole] | 2 (≈ 5.72 µM) | 2 (≈ 5.72 µM) | 2 (≈ 5.72 µM) |  |  |
| CC(C)c1ccc(OCc2cn(C[C@@]3(C)Cn4cc([N+](=O)[O-])nc4O3)nn2)cc1 [I18, (R)-2-((4-((4-Isopropylphenoxy)methyl)-1H-1,2,3-triazol-1-yl)methyl)-2-methyl-6-nitro-2,3-dihydroimidazo[2,1-b]oxazole] | 1 (≈ 2.51 µM) | 2 (≈ 5.02 µM) | 4 (≈ 10 µM) |  |  |
| Cc1ccccc1OCc1cn(C[C@@]2(C)Cn3cc([N+](=O)[O-])nc3O2)nn1 [I14, (R)-2-Methyl-6-nitro-2-((4-((o-tolyloxy)methyl)-1H-1,2,3-triazol-1-yl)methyl)-2,3-dihydroimidazo[2,1-b]oxazole] | 1 (≈ 2.7 µM) | 1 (≈ 2.7 µM) | 1 (≈ 2.7 µM) |  |  |
| Cc1cccc(OCc2cn(C[C@@]3(C)Cn4cc([N+](=O)[O-])nc4O3)nn2)c1 [I13, (R)-2-Methyl-6-nitro-2-((4-((m-tolyloxy)methyl)-1H-1,2,3-triazol-1-yl)methyl)-2,3-dihydroimidazo[2,1-b]oxazole] | 1 (≈ 2.7 µM) | 1 (≈ 2.7 µM) | 2 (≈ 5.4 µM) |  |  |
| C[C@]1(Cn2cc(-c3ccc(F)cc3)nn2)Cn2cc([N+](=O)[O-])nc2O1 [I3, (R)-2-((4-(4-Fluorophenyl)-1H-1,2,3-triazol-1-yl)methyl)-2-methyl-6nitro-2,3-dihydro imidazo[2,1-b]oxazole] | 2 (≈ 5.81 µM) | 2 (≈ 5.81 µM) | 2 (≈ 5.81 µM) |  |  |
| C[C@]1(Cn2cc(-c3ccc(OC(F)(F)F)cc3)nn2)Cn2cc([N+](=O)[O-])nc2O1 [I1, (R)-2-Methyl-6-nitro-2-((4-(4-(trifluoromethoxy)phenyl)-1H-1,2,3-triazol-1-yl)methyl)-2,3-dihydroimidazo[2,1-b]oxazole] | 2 (≈ 4.87 µM) | 2 (≈ 4.87 µM) | 1 (≈ 2.44 µM) |  |  |
